Test results published in ChEMBL document CHEMBL3044672, “N9- and N7-(Chloromethyl Phenymethyl)Chloropurine Derivatives from , '-Dichloroxylenes: Synthesis and Anticancer Activity” (2005).

How the values were obtained:
Assay type in all cases: functional
A498 = experiment: Cytotoxicity against Homo sapiens (human) A498 cells after 48 hr by sulforhodamine B assay; details: A498, 48 h
ACHN = experiment: Cytotoxicity against Homo sapiens (human) ACHN cells after 48 hr by sulforhodamine B assay
786-0 = experiment: Cytotoxicity against Homo sapiens (human) 786-0 cells after 48 hr by sulforhodamine B assay; details: 786-0, 48 h
SK-OV-3 = experiment: Cytotoxicity against Homo sapiens (human) SKOV3 cells after 48 hr by sulforhodamine B assay; details: SK-OV-3, 48 h
OVCAR-4 = experiment: Cytotoxicity against Homo sapiens (human) OVCAR4 cells after 48 hr by sulforhodamine B assay; details: OVCAR-4, 48 h
IGROV-1 = experiment: Cytotoxicity against Homo sapiens (human) IGROV1 cells after 48 hr by sulforhodamine B assay; details: IGROV-1, 48 h
OVCAR-3 = experiment: Cytotoxicity against Homo sapiens (human) OVCAR3 cells after 48 hr by sulforhodamine B assay; details: OVCAR-3, 48 h
UACC-62 = experiment: Cytotoxicity against Homo sapiens (human) UACC62 cells after 48 hr by sulforhodamine B assay; details: UACC-62, 48 h
SK-MEL-5 = experiment: Cytotoxicity against Homo sapiens (human) SK-MEL-5 cells after 48 hr by sulforhodamine B assay; details: SK-MEL-5, 48 h
SK-MEL-2 = experiment: Cytotoxicity against Homo sapiens (human) SK-MEL-2 cells after 48 hr by sulforhodamine B assay; details: SK-MEL-2, 48 h
LOX IMVI = experiment: Cytotoxicity against Homo sapiens (human) LOXIMVI cells after 48 hr by sulforhodamine B assay
SF-539 = experiment: Cytotoxicity against Homo sapiens (human) SF539 cells after 48 hr by sulforhodamine B assay; details: SF-539, 48 h
T47D = experiment: Cytotoxicity against Homo sapiens (human) T47D cells after 48 hr by sulforhodamine B assay
MDA-MB-231 = experiment: Cytotoxicity against Homo sapiens (human) MDA-MB-231 cells after 48 hr by sulforhodamine B assay; details: MDA-MB-231, 48 h
DU-145 = experiment: Cytotoxicity against Homo sapiens (human) DU145 cells after 48 hr by sulforhodamine B assay; details: DU-145, 48 h
UO-31 = experiment: Cytotoxicity against Homo sapiens (human) UO31 cells after 48 hr by sulforhodamine B assay; details: UO-31, 48 h
PC-3 = experiment: Cytotoxicity against Homo sapiens (human) PC3 cells after 48 hr by sulforhodamine B assay; details: PC-3, 48 h
RXF 393 = experiment: Cytotoxicity against Homo sapiens (human) RXF393 cells after 48 hr by sulforhodamine B assay; details: RXF 393, 48 h
SF-295 = experiment: Cytotoxicity against Homo sapiens (human) SF295 cells after 48 hr by sulforhodamine B assay; details: SF-295, 48 h
SW-620 = experiment: Cytotoxicity against Homo sapiens (human) SW620 cells after 48 hr by sulforhodamine B assay; details: SW-620, 48 h
KM12 = experiment: Cytotoxicity against Homo sapiens (human) KM12 cells after 48 hr by sulforhodamine B assay; details: KM12, 48 h
HCT-15 = experiment: Cytotoxicity against Homo sapiens (human) HCT15 cells after 48 hr by sulforhodamine B assay; details: HCT-15, 48 h
HCT-116 = experiment: Cytotoxicity against Homo sapiens (human) HCT116 cells after 48 hr by sulforhodamine B assay; details: HCT-116, 48 h
HCC 2998 = experiment: Cytotoxicity against Homo sapiens (human) HCC2998 cells after 48 hr by sulforhodamine B assay; details: HCC 2998, 48 h
NCI-H322M = experiment: Cytotoxicity against Homo sapiens (human) NCI-H322M cells after 48 hr by sulforhodamine B assay
HOP-62 = experiment: Cytotoxicity against Homo sapiens (human) HOP62 cells after 48 hr by sulforhodamine B assay; details: HOP-62, 48 h
EKVX = experiment: Cytotoxicity against Homo sapiens (human) EKVX cells after 48 hr by sulforhodamine B assay
A549 = experiment: Cytotoxicity against Homo sapiens (human) A549 cells after 48 hr by sulforhodamine B assay; details: A549, 48 h
RPMI-8226 = experiment: Cytotoxicity against Homo sapiens (human) RPMI8226 cells after 48 hr by sulforhodamine B assay; details: RPMI-8226, 48 h
MOLT-4 = experiment: Cytotoxicity against Homo sapiens (human) MOLT4 cells after 48 hr by sulforhodamine B assay; details: MOLT-4, 48 h
CCRF-CEM = experiment: Cytotoxicity against Homo sapiens (human) CCRF-CEM cells after 48 hr by sulforhodamine B assay
SF-268 = experiment: Cytotoxicity against Homo sapiens (human) SF268 cells assessed as cell growth at 10^-4 M after 48 hr by […] assay; details: SF-268, 48 h, read-out: Activity
[1] = read-out: LC50 (the source's name)

## ClCc1ccc(Cn2cnc3nc(Cl)nc(Cl)c32)cc1
A498
  GI50: 11.2 µM
  LC50 (lethal concentration, 50% cell kill): 49 µM
  TGI: 23.4 µM
ACHN
  GI50: 1.9 µM
  TGI: 3.31 µM
ACHN; [1]
  CC50: 5.75 µM
786-0
  GI50: 1.9 µM
  LC50: 7.41 µM
  TGI: 3.71 µM
SK-OV-3
  GI50: 2.34 µM
  LC50: 18.2 µM
  TGI: 5.01 µM
OVCAR-4
  GI50: 2.08 µM
  TGI: 4.16 µM
IGROV-1
  GI50: 1.41 µM
  LC50: 5.75 µM
  TGI: 2.81 µM
OVCAR-3
  GI50: 0.3 µM
  LC50: 2.51 µM
  TGI: 0.72 µM
UACC-62
  GI50: 1.65 µM
  LC50 (concentration causing 50% net cell kill): 6.02 µM
  TGI: 3.16 µM
SK-MEL-5
  GI50: 2.45 µM
  LC50: 31.6 µM
  TGI: 9.12 µM
SK-MEL-2
  GI50: 1.12 µM
  LC50 (concentration killing 50% of cells): 6.45 µM
  TGI: 2.69 µM
LOX IMVI
  GI50: 1.62 µM
  LC50: 6.45 µM
  TGI: 3.23 µM
SF-539
  GI50: 1.86 µM
  LC50 (concentration killing 50% of cells): 5.88 µM
  TGI: 3.31 µM
T47D
  GI50: 10.2 µM
  LC50: > 100 µM
  TGI: 46.8 µM
MDA-MB-231
  GI50: 1.62 µM
  LC50: 6.02 µM
  TGI: 3.09 µM
DU-145
  GI50: 1.81 µM
  LC50: 6.6 µM
  TGI: 3.46 µM
UO-31
  GI50: 1.44 µM
  LC50 (concentration causing 50% net cell kill): 5.62 µM
  TGI: 2.88 µM
PC-3
  GI50: 17.8 µM
  LC50 (concentration causing 50% cell kill): 75.9 µM
  TGI: 37.1 µM
RXF 393
  GI50: 1.65 µM
  TGI: 3.98 µM
SF-295
  GI50: 1.81 µM
  TGI: 3.31 µM
SF-295; [1]
  CC50: 5.88 µM
SW-620
  GI50: 13.2 µM
  TGI: 28.8 µM
SW-620; [1]
  CC50: 64.6 µM
KM12
  GI50: 0.26 µM
  TGI: 0.67 µM
KM12; [1]
  CC50: 2.45 µM
HCT-15
  GI50: 1.81 µM
  TGI: 3.54 µM
HCT-15; [1]
  CC50: 6.76 µM
HCT-116
  GI50: 0.12 µM
  TGI: 1.24 µM
HCT-116; [1]
  CC50: > 100 µM
HCC 2998
  GI50: 2.04 µM
  TGI: 3.8 µM
HCC 2998; [1]
  CC50: 7.07 µM
NCI-H322M
  GI50: 0.67 µM
  TGI: 1.9 µM
NCI-H322M; [1]
  CC50: 4.46 µM
HOP-62
  GI50: 1.9 µM
  TGI: 3.89 µM
HOP-62; [1]
  CC50: 7.94 µM
EKVX
  GI50: 1.9 µM
  TGI: 3.46 µM
EKVX; [1]
  CC50: 6.3 µM
A549
  GI50: 2.13 µM
  TGI: 4.07 µM
A549; [1]
  CC50: 7.94 µM
RPMI-8226
  GI50: 1.65 µM
  TGI: 28.2 µM
RPMI-8226; [1]
  CC50: 97.7 µM
MOLT-4
  GI50: 1.38 µM
  TGI: 5.49 µM
MOLT-4; [1]
  CC50: > 100 µM
CCRF-CEM
  GI50: 14.8 µM
  TGI: 31.6 µM
CCRF-CEM; [1]
  CC50: 66.1 µM
SF-268
  growth at 100 µM: 0%
